{"source": "patent US20180153872A1", "about": "“HETEROARYL CARBONITRILES FOR THE TREATMENT OF DISEASE” (OPKO Health, Inc., priority 2015, published 2018)", "key": {"[1]": {"experiment": "Brain penetration, guinea pigs", "assay_type": "in vivo, guinea pig", "protocol": "(§1) Urinary excretion was also substantial (approximately 20%).\nThe extent of brain penetration by SCH 900978 was evaluated after oral administration of SCH 900978 amorphous hydrochloride to female gerbils (0.1 mg/kg), male Sprague Dawley rats (5 mg/kg), and male guinea pigs (0.3 mg/kg)."}, "[2]": {"experiment": "Rising single-dose safety, tolerability and pharmacokinetics study in healthy human volunteers", "assay_type": "in vivo", "protocol": "A randomized, placebo-controlled, third party blind (within dose level), rising, single-dose escalation study to evaluate the safety, tolerability and pharmacokinetics of SCH900978 in healthy human volunteers was conducted and completed. […] Six subjects received placebo. […] Food had no effect on the oral bioavailability of SCH900978. […] Tmax occurred within 0-4 hours at each dosage strength. Table 2 below provides the mean SCH900978 pharmacokinetic parameters following administration of a single oral dose of 25 mgs of SCH900978 capsule or solution to healthy volunteers.\nTable 3 below provides the mean SCH900978 pharmacokinetic parameters following administration of a single oral dose of 50 mgs of SCH900978 to healthy volunteers under fasted and fed conditions."}, "[3]": {"target": "NK1 receptor (Meriones unguiculatus, UniProt Q5DUB1)", "sequence (Q5DUB1 whole entry)": "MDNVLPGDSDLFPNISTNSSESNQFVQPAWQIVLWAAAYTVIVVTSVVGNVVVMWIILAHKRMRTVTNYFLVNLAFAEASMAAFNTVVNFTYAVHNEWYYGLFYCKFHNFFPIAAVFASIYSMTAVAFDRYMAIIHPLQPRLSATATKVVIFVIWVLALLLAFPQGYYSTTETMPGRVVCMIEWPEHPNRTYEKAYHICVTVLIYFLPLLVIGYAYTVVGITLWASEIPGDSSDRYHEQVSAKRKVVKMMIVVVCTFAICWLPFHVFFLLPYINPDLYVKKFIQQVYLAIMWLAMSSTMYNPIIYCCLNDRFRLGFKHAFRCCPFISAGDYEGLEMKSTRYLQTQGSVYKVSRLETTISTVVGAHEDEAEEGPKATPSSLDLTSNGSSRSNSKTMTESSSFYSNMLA", "experiment": "NK1 receptor radioligand binding, gerbil", "conditions": "no unit, Ki in nM", "protocol": "(§2) SCH900978 was also tested for NK2 and NK3 receptor activity and in 106 other receptors, transporters, enzymes and ion channels and had greater than 1000 fold lower affinity for these than for the NK1 receptor."}, "[4]": {"tested_on": "106 other receptors, transporters, enzymes and ion channels", "experiment": "Panel of 106 other receptors, transporters, enzymes and ion channels", "assay_type": "binding", "protocol": "as §2"}, "[5]": {"experiment": "Pharmacokinetics/toxicokinetics and excretion in rats", "assay_type": "in vivo, rat", "conditions": "for plasma concentration-time profile: single oral dose", "source_text": "as §1"}, "[6]": {"target": "T1, NK3 receptor (Homo sapiens, UniProt P29371)", "T1 sequence (P29371 1-465)": "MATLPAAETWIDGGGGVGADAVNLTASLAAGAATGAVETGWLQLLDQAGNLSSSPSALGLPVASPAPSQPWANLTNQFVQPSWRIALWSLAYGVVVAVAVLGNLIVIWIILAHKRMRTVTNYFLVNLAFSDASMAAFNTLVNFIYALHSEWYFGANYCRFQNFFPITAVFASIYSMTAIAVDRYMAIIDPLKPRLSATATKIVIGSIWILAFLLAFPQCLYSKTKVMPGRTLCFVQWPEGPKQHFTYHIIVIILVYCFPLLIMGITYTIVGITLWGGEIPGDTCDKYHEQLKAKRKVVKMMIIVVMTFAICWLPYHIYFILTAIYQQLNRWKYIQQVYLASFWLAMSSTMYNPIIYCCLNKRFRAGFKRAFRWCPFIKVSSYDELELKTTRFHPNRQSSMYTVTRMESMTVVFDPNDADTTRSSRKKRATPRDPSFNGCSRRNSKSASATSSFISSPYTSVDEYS", "experiment": "NK3 receptor affinity", "assay_type": "binding", "source_text": "A compound of formula I (also designated SCH 900978) is a potent, selective, competitive neurokinin-1 (NK-1) receptor antagonist that is effective as an oral administered drug for the treatment of cough and meets this unmet medical need. In addition, this drug is effective for the treatment of overactive bladder (OAB) and other selected indications including major depression and alcohol dependency. […] The present invention comprises a compound of formula I having an effective dose for 90% inhibition [ED90]=0.2 mg/kg as determined in an in vivo pharmacodynamic model of NK1 receptor activity (gerbil foot thumping).\nas §2"}, "[7]": {"experiment": "Pharmacokinetics/toxicokinetics and excretion in monkeys", "assay_type": "in vivo, monkey", "conditions": "for plasma concentration-time profile: single oral dose", "source_text": "as §1"}, "[8]": {"tested_on": "cough induced by mechanical stimulation of the intrathoracic trachea", "experiment": "Mechanically induced cough in anesthetized dogs", "assay_type": "in vivo", "conditions": "anesthetized dog, 0.3 mg/kg oral", "protocol": "(§3) The antitussive activity of SCH 900978 was also evaluated against cough induced by mechanical stimulation of the intrathoracic trachea in anesthetized dogs. Cough was measured in each stimulation trial by the cough frequency (number of coughs) and cough amplitude (cm H2O increase in expiratory pressure). […] Plasma concentration of SCH900978 at 2, 6 and 25 hours after administration of the 0.3 mg/kg dose to dogs were 201, 151 and 102 ng/mL (373, 280 and 189 nM), respectively."}, "[9]": {"experiment": "Plasma concentration after oral dose in dogs", "assay_type": "in vivo", "conditions": "dog, 0.3 mg/kg oral", "protocol": "as §3"}, "[10]": {"experiment": "in vivo", "protocol": "A series of in vitro and in vivo studies examined the effects of SCH900978 on cardiovascular, respiratory and CNS functions. No adverse effects were observed. The NOAEL was ≥25 mg/kg in male rats, ≥12.5 mg/kg in female rats and ≥10 mg/kg in male cynomolgus monkeys; each dose was the highest dose tested."}, "[11]": {"conditions": "25 mg solution, single oral dose, n = 5"}, "[12]": {"conditions": "50 mg fasted, single oral dose, n = 6"}, "[13]": {"conditions": "50 mg fed, single oral dose, n = 6"}}, "note": "pKi: −log10 of the molar value. Several values for one entry are separate records, joined by “and”; a condition that tells them apart may be missing. Equal entries are not always repeated. Where two headings read alike, the source gives them in different places."}
{"smiles": "C[C@@H](OC[C@@]1(c2ccccc2)CC[C@](C#N)(n2cn[nH]c2=O)CN1)c1cc(C(F)(F)F)cc(C(F)(F)F)c1", "note": "[Compound 42, (3 S,6S)-6-({(1R)-1-[3,5-bis(trifluoromethyl)phenyl]ethoxy}methyl)-3-(5-oxo-1,5dihydro-4H-1,2,4-triazol-4-yl)-6-phenylpiperidine-3-carbonitrile]", "values": [{"measurement": "crossing of the blood brain barrier", "setting": "[1]", "value": "readily crossed the blood brain barrier"}, {"measurement": "Tf Mean/% CV", "setting": "[2]; 25 mg capsule, single oral dose, n = 5", "value": "312^b/0^ hr"}, {"measurement": "Cmax Mean/% CV", "setting": "[2]; 25 mg capsule, single oral dose, n = 6", "value": "213/27"}, {"measurement": "AUC(tf) Mean/% CV", "setting": "[2]; [11]", "value": "29900/22"}, {"measurement": "Tf Mean/% CV", "setting": "[2]; [11]", "value": "312/0"}, {"measurement": "Cmax Mean/% CV", "setting": "[2]; 25 mg solution, single oral dose, n = 5, adjusted for carryover", "value": "301/21"}, {"measurement": "AUC(l) Mean/% CV", "setting": "[2]; [12]", "value": "88700/23"}, {"measurement": "AUC(tf) Mean/% CV", "setting": "[2]; [12]", "value": "59700/24"}, {"measurement": "Cmax Mean/% CV", "setting": "[2]; [12]", "value": "388/32"}, {"measurement": "T1/2 Mean/% CV", "setting": "[2]; [12]", "value": "309/32"}, {"measurement": "Tf Mean/% CV", "setting": "[2]; [12]", "value": "504/0"}, {"measurement": "AUC(tf) Mean/% CV", "setting": "[2]; [13]", "value": "69000/19"}, {"measurement": "Tf Mean/% CV", "setting": "[2]; [13]", "value": "504/0"}, {"measurement": "Cmax Mean/% CV", "setting": "[2]; 50 mg fed, single oral dose, n = 6, adjusted for carryover", "value": "366/23"}, {"measurement": "bioavailability, solution versus capsule oral formulations", "setting": "[2]; healthy volunteers", "value": "comparable"}, {"measurement": "effect of food on oral bioavailability", "setting": "[2]; healthy volunteers", "value": "no effect"}, {"measurement": "safety and tolerability", "setting": "[2]; healthy volunteers, oral doses up to 50 mg", "value": "safe and well tolerated"}, {"measurement": "absorption and elimination", "setting": "[2]; healthy volunteers, single oral doses 10, 25, 50 mg", "value": "rapidly absorbed and slowly eliminated"}, {"measurement": "AUC", "setting": "[2]; human, plasma, oral, 10 mg to 200 mg dose, after a single dose, read-out: AUC plasma blood level", "value": "19000 to 352000", "unit": "ng·h/mL"}, {"measurement": "half-life", "setting": "[2]; human, plasma, oral, human, read-out: t1/2 (half-life)", "value": "10 to 13", "unit": "days"}, {"measurement": "Cmax", "setting": "[2]; human, plasma, oral, 10 mg to 200 mg dosage range, based on values from volunteers given 10, 25 and 50 mg, read-out: Cmax (either calculated or estimated)", "value": "103 to 1480", "unit": "ng/mL"}, {"measurement": "Tmax", "setting": "[2]; human, plasma, oral, each dosage strength 10, 25, 50 mg", "value": "0 to 0.167", "unit": "days"}, {"measurement": "AUC", "setting": "[2]; human, plasma, po, 25 mg, 25 mg capsule, single oral dose, n = 4, read-out: AUC(l) Mean/% CV", "value": 42900, "unit": "ng·h/mL"}, {"measurement": "half-life", "setting": "[2]; human, plasma, po, 25 mg, 25 mg capsule, single oral dose, n = 4, read-out: T1/2 Mean/% CV (converted)", "value": 9.92, "unit": "days"}, {"measurement": "AUC", "setting": "[2]; human, plasma, po, 25 mg, 25 mg capsule, single oral dose, n = 5, read-out: AUC(tf) Mean/% CV", "value": 25700, "unit": "ng·h/mL"}, {"measurement": "AUC", "setting": "[2]; human, plasma, po, 25 mg, 25 mg solution, single oral dose, n = 4, read-out: AUC(l) Mean/% CV", "value": 52600, "unit": "ng·h/mL"}, {"measurement": "half-life", "setting": "[2]; human, plasma, po, 25 mg, 25 mg solution, single oral dose, n = 4, read-out: T1/2 Mean/% CV (converted)", "value": 10.5, "unit": "days"}, {"measurement": "AUC", "setting": "[2]; human, plasma, po, 50 mg, 50 mg fed, single oral dose, n = 4, read-out: AUC(l) Mean/% CV", "value": 97000, "unit": "ng·h/mL"}, {"measurement": "half-life", "setting": "[2]; human, plasma, po, 50 mg, 50 mg fed, single oral dose, n = 4, read-out: T1/2 Mean/% CV (converted)", "value": 13.2, "unit": "days"}, {"measurement": "exposure (Cmax and AUC) versus dose", "setting": "[2]; single oral doses 10, 25, 50 mg", "value": "dose related"}, {"measurement": "Ki", "setting": "[3]", "value": 0.2, "unit": "nM"}, {"measurement": "affinity for a battery of other receptors, transporters, enzymes or ion channels", "setting": "[4]", "value": "does not have significant affinity"}, {"measurement": "fold lower affinity than for the NK1 receptor", "setting": "[4]; 106 other receptors, transporters, enzymes and ion channels vs NK1", "value": "greater than 1000 fold"}, {"measurement": "systemic exposure after repeated administration", "setting": "[5]; female and male rats, doses >=25 mg/kg, most likely CYP enzyme induction", "value": "decreased following repeated administration"}, {"measurement": "plasma concentrations over 24 hours after 29th dose versus first dose", "setting": "[5]; female rats 0.5 to 12.5 mg/kg, male rats 1 to 5 mg/kg", "value": "greater"}, {"measurement": "systemic exposure (AUC) versus dose, single dose", "setting": "[5]; male rats 0.6 to 500 mg/kg, female rats 0.5 to 250 mg/kg, no further increase at the highest doses", "value": "increased with increasing dose"}, {"measurement": "exposure, effect of sex", "setting": "[5]; rats", "value": "higher in female rats than in male rats"}, {"measurement": "exposure versus dose", "setting": "[5]; rats, once daily oral doses for one month", "value": "generally increased as the dose increased"}, {"measurement": "major elimination pathway", "setting": "[5]; rats, oral administration", "value": "excretion into the feces"}, {"measurement": "plasma concentration-time profile", "setting": "[5]; rats, listed as SCH 900978", "value": "extended absorption of SCH900978 with a long t1/2"}, {"measurement": "plasma concentration-time profile", "setting": "[5]; rats, listed as SCH900978", "value": "extended absorption of the drug and a long apparent terminal elimination phase half-life"}, {"measurement": "pKi", "setting": "[6]", "value": "< 6.00"}, {"measurement": "fold lower affinity than for the NK1 receptor", "setting": "[6]; NK3 vs NK1", "value": "greater than 1000 fold"}, {"measurement": "exposure, effect of sex", "setting": "[7]; monkeys", "value": "independent of sex"}, {"measurement": "systemic exposure versus dose, single dose", "setting": "[7]; monkeys", "value": "increased with increasing dose"}, {"measurement": "plasma concentrations over 24 hours after 29th dose versus first dose", "setting": "[7]; monkeys 0.5 to 30 mg/kg", "value": "greater"}, {"measurement": "exposure versus dose", "setting": "[7]; monkeys, once daily oral doses for one month", "value": "generally increased as the dose increased"}, {"measurement": "major elimination pathway", "setting": "[7]; monkeys, oral administration", "value": "excretion into the feces"}, {"measurement": "plasma concentration-time profile", "setting": "[7]; monkeys, listed as SCH 900978", "value": "extended absorption of SCH900978 with a long t1/2"}, {"measurement": "plasma concentration-time profile", "setting": "[7]; monkeys, listed as SCH900978", "value": "extended absorption of the drug and a long apparent terminal elimination phase half-life"}, {"measurement": "duration of significantly reduced cough amplitude", "setting": "[8]", "value": "up to 24 hours"}, {"measurement": "duration of significantly reduced cough frequency", "setting": "[8]", "value": "up to 24 hours"}, {"measurement": "concentration at 2 h", "setting": "[9]; 2 hours", "value": "201 ng/mL and 373 nM"}, {"measurement": "concentration at 6 h", "setting": "[9]; 6 hours", "value": "151 ng/mL and 280 nM"}, {"measurement": "concentration at 25 h", "setting": "[9]; 25 hours", "value": "102 ng/mL and 189 nM"}, {"measurement": "NOAEL", "setting": "[10]; female, rat", "value": "≥ 12.5", "unit": "mg/kg"}, {"measurement": "NOAEL", "setting": "[10]; male, cynomolgus monkey", "value": "≥ 10", "unit": "mg/kg"}, {"measurement": "NOAEL", "setting": "[10]; male, rat", "value": "≥ 25", "unit": "mg/kg"}]}
